Results published in patent publication US8017828B2, “Utilization of rare sugars in plant or microorganism” (Shikoku Research Institute Incorporated, priority 2004, dated 2011).

Columns and labels:
[1] = system: rice plant (variety: Nihonbare); assay: Growth of rice seedlings in hydroponic culture with D-psicose; assay type: in vivo
[2] = system: cherry tomato plant “mini carol”; assay: Hydroponic growth of cherry tomato with D-psicose 0.001-0.03%; assay type: in vivo; conditions: for number of flower clusters compared with the control plot: control plot 2.0
Method: On Jun. 10, 2003, a cherry tomato plant “mini carol” was transplanted for permanent planting to a hydroponic apparatus, and from 7 days after the permanent planting, 4 treated plots (0%, 0.001%, 0.01% and 0.03%) were prepared by adding D-psicose to a nutrient culture solution. A survey was carried out with regard to the growth at […] after the treatment (July 22). […] The fresh weight was larger in the plot of 0.001%, and was smaller in the plot of 0.03% compared with the control plot. When the fresh weight was seen according to the parts, roots and leaves were larger in the plot of 0.001%.

[3] = system: Fusarium oxysporum IFO 9967 strain; assay: Infection of treated tomato seeds on agar with Fusarium oxysporum; assay type: in vivo, tomato plant (variety: “House Momotaro”)
Method: (§1) Therefore, by using a tomato plant and a strain of Fusarium oxysporum, which is a typical pathogenic bacterium of tomato, an effect of D-psicose during infection was examined.
(§2) To be more specific, seeds of a tomato plant (variety: “House Momotaro”) were subjected to an immersion treatment by immersing them in a D-psicose solution at a concentration of from 0.01% (w/v) to 0.1% (w/v) for 15 minutes while stirring slowly, followed by air-drying on sterile gauze, and then used as treated seeds. At the center of a plastic dish with a diameter of 9 cm filled with 25 ml of 1% (w/v) agar, a mycelial disc (diameter: 1 cm) obtained by pushing out Fusarium oxysporum (IFO 9967 strain and IFO 31213 strain) cultured for 1 week on a potato dextrose agar medium using a cork borer along with the agar medium was placed, and 10 seeds of the above treated seeds were placed equally spaced around the disc. At this time, test plots in which D-psicose was added to the agar medium at a concentration of from 0.01% (w/v) to 0.1% (w/v) were prepared. Then, the dishes were placed at 23° C. under the dark condition for 7 days to 10 days, and observation was carried out with regard to the elongation of shoot, the elongation of root, the shoot development rate, the infection state in root and the like.

[4] = system: Fusarium oxysporum IFO 31213 strain; assay: as above; assay type: in vivo, tomato plant (variety: “House Momotaro”)
Method: as §1, §2

[5] = 0.5 mM, hydroponic culture for 10 days
[6] = D-psicose seed 0.01%, medium 0.01%
[7] = D-psicose seed 0.01%, medium non
[8] = D-psicose seed 0.05%, medium 0.05%
[9] = D-psicose seed 0.05%, medium non
[10] = D-psicose seed 0.10%, medium 0.10%
[11] = D-psicose seed 0.10%, medium non
[12] = seeds treated, and seeds treated plus agar medium

With `O=C(CO)[C@H](O)[C@H](O)[C@H](O)CO` [D-psicose] the Number of roots ([1]; 0.5 mM) was “no change”, the Number of roots ([1]; 0.5 mM D-psicose, Day 10 after germination, non-treated 7.00 ± 0.6) was 7.00 ± 0.6 roots and the Seed root length ([1]; 0.5 mM D-psicose, Day 10 after germination, non-treated 7.58 ± 0.23) was 5.15 ± 0.26 cm. The Plant length ([1]; 0.5 mM D-psicose, Day 10 after germination, non-treated 12.08 ± 0.21) was 5.29 ± 0.58 cm, the “root length inhibited by” value [1, 5] was 67% and the “seedling length inhibited by” value [1, 5] was 43%. The “Plant length, percentage of the relative value to untreated plot” value ([1]; 7 days (1 week) after transplantation to pot, after 0.5 mM D-psicose) was 52.4%, the Plant length ([1]; 7 days after transplantation to pot, after 0.5 mM D-psicose treatment, untreated 31.4 ± 0.5) was 16.5 ± 2.4 cm and the Plant length ([1]; 14 days after transplantation to pot, after 0.5 mM D-psicose treatment, untreated 44.7 ± 0.1) was 35.3 ± 2.1 cm. The inhibition at 100 µM ([1]; Oryza sativa, 0.1 mM) was 30%, the “time to recover to the size equal to that of the untreated plot after transplanting to soil” value ([1]; after 0.5 mM treatment, raised without D-psicose) was “about 3 weeks” and the “growth relative to the untreated plot” value ([1]; until 0.05 mM (0.005 to 0.05 mM)) was > 98%. For the same compound, the “fresh weight compared with the control plot” value ([2]; 0.001%) was “larger”, the “maximum root length compared with the control plot” value ([2]; 0.001%) was “slightly longer” and the “number of leaves compared with the control plot” value ([2]; 0.001%) was “slightly larger”. For the same compound, the “stem length compared with the control plot” value ([2]; 0.001% in nutrient culture solution) was “slightly longer”, the “number of flower clusters compared with the control plot” value ([2]; 0.001%) was “slightly larger” and the “maximum root length compared with the control plot” value ([2]; 0.01%) was “slightly shorter”. The “stem diameter compared with the control plot” value ([2]; 0.01%) was “slightly larger”, the “stem length compared with the control plot” value ([2]; 0.01%) was “slightly longer” and the “fresh weight compared with the control plot” value ([2]; 0.03%) was “smaller”. The “maximum root length compared with the control plot” value ([2]; 0.03%) was “slightly shorter”, the “number of leaves compared with the control plot” value ([2]; 0.03%) was “slightly smaller” and the “stem diameter compared with the control plot” value ([2]; 0.03%) was “slightly smaller”. The “stem length compared with the control plot” value ([2]; 0.03%) was “slightly shorter”, the “number of flower clusters compared with the control plot” value ([2]; 0.03%) was “slightly smaller” and the Root length [3, 6] was 4.5 cm. It also gave a Shoot length [3, 6] of 5.2 cm, a Root length [3, 7] of 4.1 cm and a Shoot length [3, 7] of 5.1 cm. For the same compound, the Root length [3, 8] was 3.7 cm, the Shoot length [3, 8] was 5.7 cm and the Root length [3, 9] was 3.3 cm. The Shoot length [3, 9] was 3.4 cm, the Root length [3, 10] was 2.0 cm and the Shoot length [3, 10] was 3.8 cm. The Root length [3, 11] was 3.7 cm, the Shoot length [3, 11] was 4.3 cm and the “browning caused by infection of roots with Fusarium oxysporum” value [3, 12] was “reduction”. The shoot development rate [3, 12] was “improvement”, the “mycelial elongation of Fusarium oxysporum” value ([4]; D-psicose added to the agar medium) was “inhibited” and the Root length [4, 6] was 4.7 cm. It also gave a Shoot length [4, 6] of 4.5 cm, a Root length [4, 7] of 3.9 cm and a Shoot length [4, 7] of 4.7 cm. For the same compound, the Root length [4, 8] was 3.5 cm, the Shoot length [4, 8] was 4.5 cm and the Root length [4, 9] was 3.8 cm. The Shoot length [4, 9] was 4.2 cm, the Root length [4, 10] was 2.1 cm and the Shoot length [4, 10] was 2.9 cm. For the same compound, the Root length [4, 11] was 3.2 cm, the Shoot length [4, 11] was 3.0 cm and the “browning caused by infection of roots with Fusarium oxysporum” value [4, 12] was “reduction”. For the same compound, the shoot development rate [4, 12] was “improvement”.
